Laboratory results from paper PMC12649549, “Sequence Permutation Generated Lysine and Tryptophan-Rich Antimicrobial Peptides with Enhanced Therapeutic Index” (Antibiotics, 2025).
Read-outs that look alike come from different tables or passages of the source.

What was measured:
Gram-positive bacteria = assay: Geometric mean MIC and therapeutic index, Gram-positive bacteria; type: cell-based; details: for Therapeutic Index (TI) G+: HC10/GM
Description: In this study, we aimed to investigate the potential of W5K series peptides for therapeutic use. To evaluate their efficacy for antibacterial therapy, we used the Therapeutic Index (TI) as a measure of their cell selectivity. The TI was calculated as the ratio of the concentration causing 10% hemolysis of human red blood cells (HC10) to the geometric mean minimum inhibitory concentration (GM) of the peptides against both Gram-negative and Gram-positive bacteria. This parameter was used to quantitatively assess the balance between antibacterial potency and cytotoxicity among the W5K derivatives.
(§1) The antibacterial activities of the peptides in Müller-Hinton (MH) broth and modified LYM broth were determined using the standard broth microdilution method as per Clinical and Laboratory Standards Institute (CLSI) guidelines. The LYM broth was prepared with specific components and adjusted to different conditions, including varying concentrations of NaCl and MgCl2, and different pH levels. To prepare the LYM broth, 5.4 mM KCl, 5.6 mM Na2HPO4, 0.5 mM MgSO4, and 1.0 mM sodium citrate were added. Additionally, 0.4 mg of ZnCl2, 2.0 mg of FeCl3·6H2O, 0.1 mg of CuSO4·5H2O, 0.1 mg of MnSO4·H2O, 0.1 mg of Na2B4O7∙10H2O, 700 mg of amino acid mixtures without tryptophan (Takara Bio Inc., San Jose, CA, USA), and 20 mg of L-tryptophan were added per liter of medium. The pH was adjusted to 7.4, and a vitamin mixture (100X, Sigma) and glucose concentration of 2% were added. For different conditions of LYM broth, NaCl concentrations of 300, 200, 150, and 50 mM, MgCl2 concentrations of 2.5, 1.5, and 0.5 mM, and pH levels of 6.5, 5.5, and 4.5 were adjusted. Bacterial strains were incubated in MH broth overnight, regrown, and diluted to a final concentration of 5 × 10^5 CFU/mL. Peptides were added to each well at final concentrations of 50, 25, 12.5, 6.25, 3.13, 1.56, and 0.78 µg/mL, and 99 µL of diluted microbes was loaded into each well of a polypropylene 96-well plate. […] The Morpheus HeatMap software (https://software.broadinstitute.org/morpheus/) was used to display MIC values on a color scale. All experiments were independently repeated three times.

S. aureus ATCC 33592 = test system: S. aureus ATCC 33592
Description: The antibacterial and salt-resistant activity of the peptides was tested using Escherichia coli (ATCC 25922), Pseudomonas aeruginosa Migula (ATCC 27853), Acinetobacter sp. (BCRC number 14B0091, BCRC number 14B0097, and BCRC number 14B0100), and Staphylococcus aureus sp. strains (ATCC 25923, ATCC 33591, ATCC 33592, ATCC 33593, and ATCC 6538). All bacteria were obtained from the Food Industry Research and Development Institute (Hsinchu, Taiwan) and cultured in sterilized Müller-Hinton (MH) broth at 37 °C and 200 rpm for 8 h. The inoculum concentrations were determined by measuring the optical density at 600 nm (OD 600 = 1, approximately 10^8 CFU/mL) using an Ultrospec 2100 pro UV-Visible spectrophotometer (Biochrom Ltd., Cambridge, UK) after 8 h of culture.
as §1, with “For different conditions of LYM broth, NaCl concentrations of 300, 200, 150, and 50 mM, MgCl2 concentrations of 2.5, 1.5, and 0.5 mM, and pH levels of 6.5, 5.5, and 4.5 were adjusted.” left out

[1] = test system: A. baumannii 14B00100 (Acinetobacter sp., BCRC number 14B0100)
Method in brief: (§2)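 Broth microdilution per CLSI in Müller-Hinton broth and modified LYM broth (pH 7.4; variants with 50–300 mM NaCl, 0.5–2.5 mM MgCl2, or pH 6.5–4.5). Inoculum 5 × 10^5 CFU/mL; peptides tested at 0.78–50 µg/mL final. MIC read; three independent repeats.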

S. aureus ATCC 33593 = test system: S. aureus ATCC 33593
Method in brief: as §2

S. aureus ATCC 33591 = test system: S. aureus ATCC 33591
Method in brief: as §2

[2] = LYM broth, 0 mM NaCl, 16 h, 37 °C
[3] = LYM broth, 50 mM NaCl, 16 h, 37 °C
[4] = LYM broth, 100 mM NaCl, 16 h, 37 °C
[5] = LYM broth, 200 mM (NaCl), 16 h, 37 °C
[6] = LYM broth, 300 mM (NaCl), 16 h, 37 °C
[7] = MH broth, 5 × 10^5 CFU/mL, 16 h, 37 °C, repeated three times

For Ac-KKKKWRKWLKWLA-NH2 [Peptide W5K11], the “GM G+ (geometric mean of the MIC values)” value (Gram-positive bacteria) was 5.4 µg/mL, the “Therapeutic Index (TI) G+” value (Gram-positive bacteria; Gram-positive bacteria) was 13.0 and the MIC (S. aureus ATCC 33592; [2]) was 3.13 µg/mL. For the same substance, the MIC (S. aureus ATCC 33592; LYM broth, 0.5 mM MgCl2) was 3.13 µg/mL, the MIC (S. aureus ATCC 33592; LYM broth, 1.5 mM MgCl2) was 3.13 µg/mL and the MIC (S. aureus ATCC 33592; LYM broth, 2.5 mM MgCl2) was 3.13 µg/mL. It also gave an MIC (S. aureus ATCC 33592; [3]) of 3.13 µg/mL, an MIC (S. aureus ATCC 33592; [4]) of 3.13 µg/mL and an MIC (S. aureus ATCC 33592; [5]) of 3.13 µg/mL. The MIC (S. aureus ATCC 33592; [6]) was 6.25 µg/mL, the MIC (S. aureus ATCC 33592; LYM broth, pH 4.5) was 3.13 µg/mL and the MIC (S. aureus ATCC 33592; LYM broth, pH 5.5) was 3.13 µg/mL. It also gave an MIC (S. aureus ATCC 33592; LYM broth, pH 6.5) of 1.56 µg/mL, an MIC (S. aureus ATCC 33592; [7]) of 6.25 µg/mL and an MIC [1, 2] of 0.78 µg/mL. For the same substance, the MIC ([1]; LYM broth, 0.5 mM MgCl2) was 1.56 µg/mL, the MIC ([1]; LYM broth, 1.5 mM MgCl2) was 1.56 µg/mL and the MIC ([1]; LYM broth, 2.5 mM MgCl2) was 1.56 µg/mL. It also gave an MIC [1, 3] of 0.78 µg/mL, an MIC [1, 4] of 0.78 µg/mL and an MIC [1, 5] of 0.78 µg/mL. For the same substance, the MIC [1, 6] was 0.78 µg/mL, the MIC ([1]; LYM broth, pH 4.5) was 1.56 µg/mL and the MIC ([1]; LYM broth, pH 5.5) was 1.56 µg/mL. It also gave an MIC ([1]; LYM broth, pH 6.5) of 1.56 µg/mL, an MIC [1, 7] of 1.56 µg/mL and an MIC (S. aureus ATCC 33593; [2]) of 3.13 µg/mL. The MIC (S. aureus ATCC 33593; LYM broth, 0.5 mM MgCl2) was 3.13 µg/mL, the MIC (S. aureus ATCC 33593; LYM broth, 1.5 mM MgCl2) was 3.13 µg/mL and the MIC (S. aureus ATCC 33593; LYM broth, 2.5 mM MgCl2) was 3.13 µg/mL. The MIC (S. aureus ATCC 33593; [3]) was 3.13 µg/mL, the MIC (S. aureus ATCC 33593; [4]) was 3.13 µg/mL and the MIC (S. aureus ATCC 33593; [5]) was 3.13 µg/mL. The MIC (S. aureus ATCC 33593; [6]) was 6.25 µg/mL, the MIC (S. aureus ATCC 33593; LYM broth, pH 4.5) was 3.13 µg/mL and the MIC (S. aureus ATCC 33593; LYM broth, pH 5.5) was 1.56 µg/mL. For the same substance, the MIC (S. aureus ATCC 33593; LYM broth, pH 6.5) was 1.56 µg/mL, the MIC (S. aureus ATCC 33593; [7]) was 6.25 µg/mL and the MIC (S. aureus ATCC 33591; [2]) was 3.13 µg/mL. The MIC (S. aureus ATCC 33591; LYM broth, 0.5 mM MgCl2) was 3.13 µg/mL, the MIC (S. aureus ATCC 33591; LYM broth, 1.5 mM MgCl2) was 3.13 µg/mL and the MIC (S. aureus ATCC 33591; LYM broth, 2.5 mM MgCl2) was 3.13 µg/mL. For the same substance, the MIC (S. aureus ATCC 33591; [3]) was 3.13 µg/mL, the MIC (S. aureus ATCC 33591; [4]) was 3.13 µg/mL and the MIC (S. aureus ATCC 33591; [5]) was 6.25 µg/mL. The MIC (S. aureus ATCC 33591; [6]) was 6.25 µg/mL, the MIC (S. aureus ATCC 33591; LYM broth, pH 4.5) was 3.13 µg/mL and the MIC (S. aureus ATCC 33591; LYM broth, pH 5.5) was 3.13 µg/mL. The MIC (S. aureus ATCC 33591; LYM broth, pH 6.5) was 3.13 µg/mL and the MIC (S. aureus ATCC 33591; [7]) was 12.5 µg/mL.

For Ac-KKKWRKWLKWLAK-NH2 [Peptide W5K12], the “GM G+ (geometric mean of the MIC values)” value (Gram-positive bacteria; Gram-positive bacteria, MH broth, MIC >50 µg/mL counted as 100 µg/mL) was 4.7 µg/mL, the “Therapeutic Index (TI) G+” value (Gram-positive bacteria; Gram-positive bacteria) was 8.8 and the MIC (S. aureus ATCC 33592; [2]) was 3.13 µg/mL. For the same substance, the MIC (S. aureus ATCC 33592; LYM broth, 0.5 mM MgCl2) was 3.13 µg/mL, the MIC (S. aureus ATCC 33592; LYM broth, 1.5 mM MgCl2) was 3.13 µg/mL and the MIC (S. aureus ATCC 33592; LYM broth, 2.5 mM MgCl2) was 3.13 µg/mL. For the same substance, the MIC (S. aureus ATCC 33592; [3]) was 3.13 µg/mL, the MIC (S. aureus ATCC 33592; [4]) was 3.13 µg/mL and the MIC (S. aureus ATCC 33592; [5]) was 6.25 µg/mL. It also gave an MIC (S. aureus ATCC 33592; [6]) of 12.5 µg/mL, an MIC (S. aureus ATCC 33592; LYM broth, pH 4.5) of 3.13 µg/mL and an MIC (S. aureus ATCC 33592; LYM broth, pH 5.5) of 3.13 µg/mL. It also gave an MIC (S. aureus ATCC 33592; LYM broth, pH 6.5) of 1.56 µg/mL, an MIC (S. aureus ATCC 33592; [7]) of 6.25 µg/mL and an MIC [1, 2] of 1.56 µg/mL. The MIC ([1]; LYM broth, 0.5 mM MgCl2) was 1.56 µg/mL, the MIC ([1]; LYM broth, 1.5 mM MgCl2) was 1.56 µg/mL and the MIC ([1]; LYM broth, 2.5 mM MgCl2) was 3.13 µg/mL. For the same substance, the MIC [1, 3] was 1.56 µg/mL, the MIC [1, 4] was 1.56 µg/mL and the MIC [1, 5] was 1.56 µg/mL. It also gave an MIC [1, 6] of 1.56 µg/mL, an MIC ([1]; LYM broth, pH 4.5) of 3.13 µg/mL and an MIC ([1]; LYM broth, pH 5.5) of 3.13 µg/mL. For the same substance, the MIC ([1]; LYM broth, pH 6.5) was 1.56 µg/mL, the MIC [1, 7] was 3.13 µg/mL and the MIC (S. aureus ATCC 33593; [2]) was 3.13 µg/mL. It also gave an MIC (S. aureus ATCC 33593; LYM broth, 0.5 mM MgCl2) of 3.13 µg/mL, an MIC (S. aureus ATCC 33593; LYM broth, 1.5 mM MgCl2) of 3.13 µg/mL and an MIC (S. aureus ATCC 33593; LYM broth, 2.5 mM MgCl2) of 3.13 µg/mL. For the same substance, the MIC (S. aureus ATCC 33593; [3]) was 3.13 µg/mL, the MIC (S. aureus ATCC 33593; [4]) was 3.13 µg/mL and the MIC (S. aureus ATCC 33593; [5]) was 6.25 µg/mL. The MIC (S. aureus ATCC 33593; [6]) was 12.5 µg/mL, the MIC (S. aureus ATCC 33593; LYM broth, pH 4.5) was 3.13 µg/mL and the MIC (S. aureus ATCC 33593; LYM broth, pH 5.5) was 1.56 µg/mL. For the same substance, the MIC (S. aureus ATCC 33593; LYM broth, pH 6.5) was 1.56 µg/mL, the MIC (S. aureus ATCC 33593; [7]) was 6.25 µg/mL and the MIC (S. aureus ATCC 33591; [2]) was 3.13 µg/mL. The MIC (S. aureus ATCC 33591; LYM broth, 0.5 mM MgCl2) was 3.13 µg/mL, the MIC (S. aureus ATCC 33591; LYM broth, 1.5 mM MgCl2) was 3.13 µg/mL and the MIC (S. aureus ATCC 33591; LYM broth, 2.5 mM MgCl2) was 3.13 µg/mL. It also gave an MIC (S. aureus ATCC 33591; [3]) of 3.13 µg/mL, an MIC (S. aureus ATCC 33591; [4]) of 3.13 µg/mL and an MIC (S. aureus ATCC 33591; [5]) of 6.25 µg/mL. The MIC (S. aureus ATCC 33591; [6]) was 12.5 µg/mL, the MIC (S. aureus ATCC 33591; LYM broth, pH 4.5) was 3.13 µg/mL and the MIC (S. aureus ATCC 33591; LYM broth, pH 5.5) was 3.13 µg/mL. For the same substance, the MIC (S. aureus ATCC 33591; LYM broth, pH 6.5) was 3.13 µg/mL and the MIC (S. aureus ATCC 33591; [7]) was 6.25 µg/mL.
